From article PMC6881171, “A conserved ATP- and Scc2/4-dependent activity for cohesin in tethering DNA molecules” (Science Advances, 2019)

Biological target: T1, budding yeast cohesin tetramer (Smc1, Smc3, Scc1/Mcd1, Scc3) with Scc2-Scc4 loader complex (Saccharomyces cerevisiae, UniProt P32908+P47037)
T1 construct: tetramer overexpressed in S. cerevisiae W303-1a; Smc1-3xStrepII, Mcd1-8xHis-3xHA; loader Scc2-3xmyc-3xStrepII with Scc4; tags kept; with Sister chromatid cohesion protein 1; Cohesin subunit SCC3; Sister chromatid cohesion protein 2; MAU2 chromatid cohesion factor homolog
Assay: [gamma-32P]ATP hydrolysis, thin-layer chromatography
Assay type: biochemical
Settings: 30 nM cohesin, 60 nM Scc2/4, 0.2 nM lambda-DNA, 400 uM ATP, 0.5 mM MgCl2, 20 mM NaCl, pH 7.0, 29 C; labelled compound

With `Nc1ncnc2c1ncn2[C@@H]1O[C@H](COP(=O)(O)OP(=O)(O)OP(=O)(O)O)[C@@H](O)[C@H]1O` [ATP] the “[gamma-32P]ATP hydrolysis, thin-layer chromatography” value was “our purified Scc2-Scc4 complex was able to stimulate cohesin ATPase activity”.
